# Measurements from ChEMBL document CHEMBL4354847, “Congenetic Hybrids Derived from Dearomatized Isoprenylated Acylphloroglucinol with Opposite Effects on Cav3.1 Low Voltage-Gated Ca2+ Channel” (J Med Chem, 2020).
# pEC50, pIC50: −log10 of the molar value. Calls of active or inactive are those of the source.
# Experiments:
# Type in all cases: cell-based
# Mus musculus [1] = species on record: Mus musculus; assay: Agonist activity at mouse Cav3.1 R1715H mutant expressed in HEK293T cells assessed as change in time constant of activation at 10 uM at holding potential of -100 mV by whole cell electrophysiological method
# Mus musculus [2] = species on record: Mus musculus; assay: Agonist activity at mouse Cav3.1 R1715H mutant expressed in HEK293T cells assessed as change in half-maximal activation potential at 10 uM at holding potential of -100 mV by whole cell electrophysiological method (reference value: -38 +/- 4.3 mV)
# [3] = Agonist activity at mouse Cav3.1 R1715H mutant expressed in HEK293T cells assessed as increase in current amplitude at holding potential of -100 mV by whole cell electrophysiological method; conditions: HEK-293T
# [4] = biological target: T-type calcium channel alpha 1G subunit (Mus musculus) (UniProt Q27YN9); assay: Antagonist activity at mouse Cav3.1 expressed in HEK293T cells assessed as change in time constant of inactivation at 5 uM at holding potential of -100 mV by whole cell electrophysiological method
# Sequence of T-type calcium channel alpha 1G subunit (Mus musculus) (Q27YN9 as listed by the source): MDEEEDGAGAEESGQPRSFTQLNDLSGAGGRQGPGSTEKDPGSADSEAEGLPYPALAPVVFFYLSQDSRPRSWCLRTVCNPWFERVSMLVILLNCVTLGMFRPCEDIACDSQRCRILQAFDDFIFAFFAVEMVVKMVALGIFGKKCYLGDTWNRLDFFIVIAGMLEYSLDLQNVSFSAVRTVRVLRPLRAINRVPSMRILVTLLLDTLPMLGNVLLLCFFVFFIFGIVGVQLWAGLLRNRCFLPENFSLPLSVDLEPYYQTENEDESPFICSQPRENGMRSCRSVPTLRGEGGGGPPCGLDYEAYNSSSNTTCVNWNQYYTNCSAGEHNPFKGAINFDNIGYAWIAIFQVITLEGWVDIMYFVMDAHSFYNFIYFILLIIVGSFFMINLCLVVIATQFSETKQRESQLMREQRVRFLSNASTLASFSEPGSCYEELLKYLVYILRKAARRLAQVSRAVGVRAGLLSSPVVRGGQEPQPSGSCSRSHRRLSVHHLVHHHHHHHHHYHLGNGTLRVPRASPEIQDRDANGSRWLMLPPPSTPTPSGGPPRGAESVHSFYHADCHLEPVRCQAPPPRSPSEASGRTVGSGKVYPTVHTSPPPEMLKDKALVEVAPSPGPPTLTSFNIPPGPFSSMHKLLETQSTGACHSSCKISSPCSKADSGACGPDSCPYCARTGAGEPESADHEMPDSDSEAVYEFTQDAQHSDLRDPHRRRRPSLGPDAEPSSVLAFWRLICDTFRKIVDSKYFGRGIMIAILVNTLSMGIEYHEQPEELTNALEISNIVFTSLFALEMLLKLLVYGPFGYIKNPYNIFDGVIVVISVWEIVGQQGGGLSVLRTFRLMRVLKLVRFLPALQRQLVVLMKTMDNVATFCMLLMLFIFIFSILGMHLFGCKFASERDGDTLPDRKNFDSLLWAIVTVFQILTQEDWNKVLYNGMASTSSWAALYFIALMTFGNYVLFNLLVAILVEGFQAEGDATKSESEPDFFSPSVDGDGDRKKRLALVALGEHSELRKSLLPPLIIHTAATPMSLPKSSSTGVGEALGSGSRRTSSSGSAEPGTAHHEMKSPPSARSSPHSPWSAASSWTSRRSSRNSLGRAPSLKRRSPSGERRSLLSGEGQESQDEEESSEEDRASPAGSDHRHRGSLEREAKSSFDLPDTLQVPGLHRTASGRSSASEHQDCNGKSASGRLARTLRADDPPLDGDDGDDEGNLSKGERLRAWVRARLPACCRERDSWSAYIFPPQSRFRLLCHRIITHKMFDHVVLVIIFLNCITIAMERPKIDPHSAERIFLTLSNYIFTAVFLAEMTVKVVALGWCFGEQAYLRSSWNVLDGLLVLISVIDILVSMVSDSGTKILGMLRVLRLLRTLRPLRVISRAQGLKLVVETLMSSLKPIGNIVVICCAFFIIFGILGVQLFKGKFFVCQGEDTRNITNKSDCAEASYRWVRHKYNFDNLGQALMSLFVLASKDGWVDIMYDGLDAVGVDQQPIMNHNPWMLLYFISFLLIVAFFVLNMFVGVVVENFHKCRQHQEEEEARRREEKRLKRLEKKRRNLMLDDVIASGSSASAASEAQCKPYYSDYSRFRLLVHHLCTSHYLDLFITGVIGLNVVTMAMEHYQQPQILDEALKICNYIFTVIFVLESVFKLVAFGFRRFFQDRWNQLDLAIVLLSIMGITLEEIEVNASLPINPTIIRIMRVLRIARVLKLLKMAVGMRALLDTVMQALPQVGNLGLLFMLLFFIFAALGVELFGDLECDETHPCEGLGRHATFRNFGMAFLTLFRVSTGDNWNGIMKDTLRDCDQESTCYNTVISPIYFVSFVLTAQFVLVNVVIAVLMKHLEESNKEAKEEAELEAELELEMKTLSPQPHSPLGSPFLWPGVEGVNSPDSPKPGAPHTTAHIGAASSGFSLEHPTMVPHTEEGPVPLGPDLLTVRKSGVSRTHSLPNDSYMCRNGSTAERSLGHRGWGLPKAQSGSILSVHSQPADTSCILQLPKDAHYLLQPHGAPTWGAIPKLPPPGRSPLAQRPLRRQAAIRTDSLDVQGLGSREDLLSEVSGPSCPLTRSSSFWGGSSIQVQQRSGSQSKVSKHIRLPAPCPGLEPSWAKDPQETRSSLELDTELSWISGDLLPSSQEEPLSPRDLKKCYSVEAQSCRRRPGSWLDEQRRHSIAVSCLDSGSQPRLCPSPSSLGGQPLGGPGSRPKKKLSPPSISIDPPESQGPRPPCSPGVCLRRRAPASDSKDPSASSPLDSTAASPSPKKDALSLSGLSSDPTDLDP
# [5] = biological target: T-type calcium channel alpha 1G subunit (Mus musculus) (UniProt Q27YN9); assay: Agonist activity at mouse Cav3.1 expressed in HEK293T cells assessed as increase in current amplitude at 3 to 30 uM at holding potential of -100 mV incubated prior to compound washout by whole cell electrophysiological method
# [6] = biological target: T-type calcium channel alpha 1G subunit (Mus musculus) (UniProt Q27YN9); assay: Agonist activity at mouse Cav3.1 expressed in HEK293T cells assessed as decrease in half-maximal activation potential at 5 uM at holding potential of -100 mV incubated prior to compound washout by whole cell electrophysiological method
# [7] = biological target: T-type calcium channel alpha 1G subunit (Mus musculus) (UniProt Q27YN9); assay: Agonist activity at mouse Cav3.1 expressed in HEK293T cells assessed as change in time constant of activation at 5 uM at holding potential of -100 mV by whole cell electrophysiological method
# Mus musculus [8] = species on record: Mus musculus; assay: Antagonist activity at mouse Cav3.1 R1715H mutant expressed in HEK293T cells assessed as change in time constant of inactivation at 10 uM at holding potential of -100 mV by whole cell electrophysiological method
# [9] = biological target: T-type calcium channel alpha 1G subunit (Mus musculus) (UniProt Q27YN9); assay: Agonist activity at mouse Cav3.1 expressed in HEK293T cells assessed as increase in current amplitude at 5 uM at holding potential of -100 mV in presence of hypatone-B by whole cell electrophysiological method
# [10] = biological target: T-type calcium channel alpha 1G subunit (Mus musculus) (UniProt Q27YN9); assay: Antagonist activity at mouse Cav3.1 expressed in HEK293T cells assessed as half-maximal inactivation potential at 5 uM at holding potential of -100 mV by whole cell electrophysiological method (reference value: -70.8 +/- 3 mV)
# [11] = biological target: T1, T-type calcium channel alpha 1G subunit (Mus musculus, UniProt Q27YN9); assay: Agonist activity at mouse Cav3.1 expressed in HEK293T cells assessed as increase in current amplitude at holding potential of -100 mV by whole cell electrophysiological method
# T1 sequence (Q27YN9 whole entry): as the sequence (Q27YN9 as listed by the source) above
# Mus musculus [12] = species on record: Mus musculus; assay: Agonist activity at mouse Cav3.1 R1715H mutant expressed in HEK293T cells assessed as increase in 200 ms ramp from -100 to -40 mV after 100 ms hyperpolarization of -100 mV evoked peak of low threshold Ca2+ spike at 10 uM at -60 mV holding potential by whole cell electrophysiological method relative to control
# Mus musculus [13] = species on record: Mus musculus; assay: Antagonist activity at mouse Cav3.1 R1715H mutant expressed in HEK293T cells assessed as depolarization of action potential at 10 uM at holding potential of -100 mV by whole cell electrophysiological method
# [14] = biological target: T-type calcium channel alpha 1G subunit (Mus musculus) (UniProt Q27YN9); assay: Agonist activity at mouse Cav3.1 expressed in HEK293T cells assessed as change in slope factor at 5 uM at holding potential of -100 mV by whole cell electrophysiological method
# [15] = biological target: T-type calcium channel alpha 1G subunit (Mus musculus) (UniProt Q27YN9); assay: Agonist activity at mouse Cav3.1 expressed in HEK293T cells assessed as increase in current amplitude at 5 uM at holding potential of -100 mV measured after 12 to 14 secs by whole cell electrophysiological method
# [16] = biological target: T-type calcium channel alpha 1G subunit (Mus musculus) (UniProt Q27YN9); assay: Antagonist activity at mouse Cav3.1 expressed in HEK293T cells assessed as increase in half-maximal activation potential at 5 uM at holding potential of -100 mV incubated prior to compound washout by whole cell electrophysiological method
# [17] = biological target: T-type calcium channel alpha 1G subunit (Mus musculus) (UniProt Q27YN9); assay: Agonist activity at mouse Cav3.1 expressed in HEK293T cells assessed as increase in window current at 5 uM at holding potential of -100 mV by whole cell electrophysiological method
# Mus musculus [18] = species on record: Mus musculus; assay: Agonist activity at mouse Cav3.1 R1715H mutant expressed in HEK293T cells assessed as change in slope factor at 10 uM at holding potential of -100 mV by whole cell electrophysiological method
# [19] = biological target: T-type calcium channel alpha 1G subunit (Mus musculus) (UniProt Q27YN9); assay: Agonist activity at mouse Cav3.1 expressed in HEK293T cells assessed as increase in current amplitude at 300 uM at holding potential of -100 mV measured up to 150 millisecs in presence of LVGCC blocker Ni2+ by whole cell electrophysiological method
# [20] = biological target: T-type calcium channel alpha 1G subunit (Mus musculus) (UniProt Q27YN9); assay: Antagonist activity at mouse Cav3.1 expressed in HEK293T cells assessed as change in slope factor at 5 uM at holding potential of -100 mV by whole cell electrophysiological method
# Mus musculus [21] = species on record: Mus musculus; assay: Agonist activity at mouse Cav3.1 R1715H mutant expressed in HEK293T cells assessed as normalized window current at 10 uM at holding potential of -100 mV by whole cell electrophysiological method
# [22] = biological target: T-type calcium channel alpha 1G subunit (Mus musculus) (UniProt Q27YN9); assay: Agonist activity at mouse Cav3.1 expressed in HEK293T cells assessed as half-maximal activation potential at 5 uM at holding potential of -100 mV by whole cell electrophysiological method (reference value: -44 +/- 2.8 mV)
# Mus musculus [23] = species on record: Mus musculus; assay: Agonist activity at mouse Cav3.1 R1715H mutant expressed in HEK293T cells assessed as shift in voltage dependence of activation at 10 uM at holding potential of -100 mV by whole cell electrophysiological method
# [24] = biological target: T-type calcium channel alpha 1G subunit (Mus musculus) (UniProt Q27YN9); assay: Antagonist activity at mouse Cav3.1 expressed in HEK293T cells assessed as inhibition of current amplitude at 2 uM at holding potential of -100 mV in presence of hypatone-A by whole cell electrophysiological method
# [25] = biological target: T1, T-type calcium channel alpha 1G subunit; assay: (§1) Antagonist activity at mouse Cav3.1 expressed in HEK293T cells assessed as inhibition of current amplitude at holding potential of -100 mV by whole cell electrophysiological method
# [26] = biological target: T-type calcium channel alpha 1G subunit (Mus musculus) (UniProt Q27YN9); assay: as §1
# [27] = biological target: T-type calcium channel alpha 1G subunit (Mus musculus) (UniProt Q27YN9); assay: Antagonist activity at mouse Cav3.1 expressed in HEK293T cells assessed as inhibition of current amplitude at 10 uM at holding potential of -100 mV incubated prior to compound washout by whole cell electrophysiological method
# [28] = biological target: Voltage-dependent T-type calcium channel subunit alpha-1G (Homo sapiens, UniProt O43497); assay: Agonist activity at Cav3.1 (unknown origin) expressed in HEK293T cells assessed as increase in current amplitude at holding potential of -100 mV by whole cell patch-clamp electrophysiological method
# Sequence of Voltage-dependent T-type calcium channel subunit alpha-1G (O43497 whole entry): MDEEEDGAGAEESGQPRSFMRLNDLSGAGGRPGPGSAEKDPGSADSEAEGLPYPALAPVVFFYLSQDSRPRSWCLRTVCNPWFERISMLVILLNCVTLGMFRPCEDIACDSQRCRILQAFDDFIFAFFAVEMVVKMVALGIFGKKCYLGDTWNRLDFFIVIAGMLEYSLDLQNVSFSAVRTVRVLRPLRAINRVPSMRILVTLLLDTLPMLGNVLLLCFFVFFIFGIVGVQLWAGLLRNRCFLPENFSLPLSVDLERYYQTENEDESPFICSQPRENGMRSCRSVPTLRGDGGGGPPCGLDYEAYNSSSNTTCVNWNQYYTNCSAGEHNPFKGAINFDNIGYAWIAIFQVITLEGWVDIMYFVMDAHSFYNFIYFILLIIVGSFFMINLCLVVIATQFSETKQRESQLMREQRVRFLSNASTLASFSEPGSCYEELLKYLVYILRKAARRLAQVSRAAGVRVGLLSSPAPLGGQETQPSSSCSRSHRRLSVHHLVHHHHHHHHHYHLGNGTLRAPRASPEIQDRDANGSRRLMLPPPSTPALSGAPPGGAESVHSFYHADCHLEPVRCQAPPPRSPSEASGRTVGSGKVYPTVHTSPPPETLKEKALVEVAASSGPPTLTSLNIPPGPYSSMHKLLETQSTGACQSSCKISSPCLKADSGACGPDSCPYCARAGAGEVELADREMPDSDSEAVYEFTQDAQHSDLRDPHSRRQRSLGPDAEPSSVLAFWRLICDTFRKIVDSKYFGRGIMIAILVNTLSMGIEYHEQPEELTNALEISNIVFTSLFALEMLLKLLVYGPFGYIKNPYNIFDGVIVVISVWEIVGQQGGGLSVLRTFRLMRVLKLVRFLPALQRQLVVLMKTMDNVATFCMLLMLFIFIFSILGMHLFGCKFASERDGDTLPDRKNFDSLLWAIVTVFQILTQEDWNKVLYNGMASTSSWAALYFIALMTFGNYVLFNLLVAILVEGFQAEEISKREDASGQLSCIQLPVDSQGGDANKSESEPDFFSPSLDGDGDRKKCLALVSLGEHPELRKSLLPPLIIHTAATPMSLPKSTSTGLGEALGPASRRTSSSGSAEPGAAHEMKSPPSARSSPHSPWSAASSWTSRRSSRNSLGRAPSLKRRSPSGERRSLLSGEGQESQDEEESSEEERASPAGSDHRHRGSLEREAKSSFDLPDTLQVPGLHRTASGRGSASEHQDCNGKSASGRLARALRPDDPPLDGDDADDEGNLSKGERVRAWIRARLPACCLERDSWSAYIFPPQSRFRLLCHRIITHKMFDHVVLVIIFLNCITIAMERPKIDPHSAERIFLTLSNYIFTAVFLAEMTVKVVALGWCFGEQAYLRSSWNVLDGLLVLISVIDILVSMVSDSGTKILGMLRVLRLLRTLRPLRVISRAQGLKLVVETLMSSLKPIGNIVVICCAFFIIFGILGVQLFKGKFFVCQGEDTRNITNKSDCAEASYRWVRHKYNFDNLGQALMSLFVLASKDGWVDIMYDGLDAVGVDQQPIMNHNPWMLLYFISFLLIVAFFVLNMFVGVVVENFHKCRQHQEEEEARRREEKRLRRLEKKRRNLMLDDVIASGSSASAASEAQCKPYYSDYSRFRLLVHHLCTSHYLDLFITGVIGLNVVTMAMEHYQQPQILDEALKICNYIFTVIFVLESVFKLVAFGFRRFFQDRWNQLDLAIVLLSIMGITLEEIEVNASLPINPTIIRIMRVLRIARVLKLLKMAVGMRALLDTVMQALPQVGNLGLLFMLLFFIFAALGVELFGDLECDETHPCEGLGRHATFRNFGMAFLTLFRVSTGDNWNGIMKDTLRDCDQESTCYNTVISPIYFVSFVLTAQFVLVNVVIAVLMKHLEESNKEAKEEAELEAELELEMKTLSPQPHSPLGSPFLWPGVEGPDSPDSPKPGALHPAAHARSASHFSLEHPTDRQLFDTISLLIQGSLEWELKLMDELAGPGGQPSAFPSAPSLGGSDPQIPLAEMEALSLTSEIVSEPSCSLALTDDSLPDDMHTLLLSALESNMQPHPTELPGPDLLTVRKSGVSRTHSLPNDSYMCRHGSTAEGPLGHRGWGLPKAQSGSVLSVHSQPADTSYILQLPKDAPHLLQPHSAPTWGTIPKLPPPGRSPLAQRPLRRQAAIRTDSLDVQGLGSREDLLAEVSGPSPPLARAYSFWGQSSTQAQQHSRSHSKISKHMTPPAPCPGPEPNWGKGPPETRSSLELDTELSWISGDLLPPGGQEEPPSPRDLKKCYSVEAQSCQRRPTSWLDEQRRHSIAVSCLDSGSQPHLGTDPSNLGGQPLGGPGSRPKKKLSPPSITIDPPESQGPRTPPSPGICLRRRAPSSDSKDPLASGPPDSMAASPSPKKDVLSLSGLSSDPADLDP
smiles,measurement,setting,value
CC(C)=CCC1(CC=C(C)C)C(=O)C(C(=O)c2ccccc2)=C2O[C@]3(C)CC[C@H]4C[C@@H]3[C@]2(C1=O)C4(C)C,Activity,Mus musculus [1],inactive
same,V1/2,Mus musculus [2],-43.8 mV
same,pEC50,[3],5.02
same,Activity,[4],inactive
same,Activity,[5],inactive
same,Activity,[6],inactive
same,Activity,[7],inactive
same,Activity,Mus musculus [8],inactive
same,Activity,[9],Active
same,V1/2,[10],-66.5 mV
same,pEC50,[11],5.42
same,Activity,Mus musculus [12],26.7%
same,Activity,Mus musculus [13],inactive
same,Activity,[14],inactive
same,Activity,[15],Active
same,Activity,[16],inactive
same,Activity,[17],Active
same,Activity,Mus musculus [18],inactive
same,Activity,[19],inactive
same,Activity,[20],inactive
same,Activity,Mus musculus [21],Active
same,V1/2,[22],-47.6 mV
same,Activity,Mus musculus [23],inactive
C=C(C)[C@H]1CC[C@@](C)(O)[C@@H](C2=C(O)C(CC=C(C)C)(CC=C(C)C)C(=O)C(C(=O)c3ccccc3)=C2O)C1,inhibition,[24],Active
same,pIC50,[25],5.64
same,inhibition,[26],Dose-dependent effect
same,inhibition,[27],Active
C=C(C)[C@H]1CC[C@@](C)(O)[C@@H](C2=C(O)C(CC=C(C)C)(CC=C(C)C)C(=O)C(C(=O)C(C)CC)=C2O)C1 (some centres undefined),pIC50,[25],6.72
same,inhibition,[26],Dose-dependent effect
same,inhibition,[27],Active
C=C(C)[C@H]1CC[C@@](C)(O)[C@@H](C2=C(O)C(CC=C(C)C)(CC=C(C)C)C(=O)C(C(=O)C(C)C)=C2O)C1,pIC50,[25],5.46
same,inhibition,[26],Dose-dependent effect
same,inhibition,[27],Active
CC(C)C1=C/C(=C2\C(=O)C=C3C(C)(C)CCC[C@@]32C)OC1=O,pEC50,[28],4.90
